Results taken from patent US8349791B2, “Polypeptides that bind membrane proteins” (The Trustees of the University of Pennsylvania, priority 2006, dated 2013).
Peptide text beside a SMILES is read from it.

Key:
[1] = Trp fluorescence, phospholipid bilayer insertion; format: physicochemical; conditions: for insertion into phospholipid vesicles: FIG. 9
Description: Fluorescence intensity was measured on an ATF 105 spectrofluorometer (Aviv Biomedical, Inc., Lakewood, N.J.) using a 0.3 cm path length cuvette. Small unilamellar vesicles composed of 1-Palmitoyl-2-Oleoyl-sn-Glycero-3-Phosphocholine and 1-Palmitoyl-2-Oleoyl-sn-Glycero-3-[Phospho-rac-(1-glycerol)] (7:3) were prepared using standard ethanol dilution (Batzri S & Korn E D. Biochim. Biophys. Acta. 298, 1015-1019 (1973)): phospholipids were initially dissolved in 15 μl ethanol and then diluted to 1 ml with buffer (20 mM HEPES, pH=7.5). Samples with 1 μM anti-αIIb in the presence of 0, 100, and 500 μM total phospholipids were prepared. Excitation of 280 nm was used for emission scans ranging from 410 nm to 300 nm. Excitation and emission slit widths are 2.5 nm and 1.5 nm, respectively. An average time of 1.0 second was used.
See FIG. 9, which provides the emission scans of anti-αIIb (1 μM) and of anti-αV in the presence of three different concentrations of phospholipids. Provided are emission scans of 1 μM anti-αIIb (FIG. 9a) and 1 μM anti-αV (FIG. 9b) in presence of 0 μM (*), 100 μM (†), and 500 μM (^) of phospholipids (POPC:POPG=7:3, excitation wavelength=280 nm). The emission maximum of the Trp residue in anti-αIIb occurs at 353 nm, consistent with a fully-exposed Trp residue in the absence of membranes. In the presence of phospholipids vesicles, the emission maximum blue-shifts by 31 nm, indicating a transfer to a membrane-like environment.

αIIbβ3 = biological target: T1, αIIbβ3 (Homo sapiens, UniProt P08514); test: Force spectroscopy (laser tweezers), platelets and fibrinogen-coated beads; format: cell-based
T1 construct: trapped from a suspension of gel filtered human platelets or CHO cells; endogenous in cells; host or cells: gel-filtered human platelets
From the text: (§1) Litvinov R I et al. Proc. Natl. Acad. Sci. USA. 99, 7426-31 (2002). Recombinant human OPN, prepared as previously described (Bennett J S et al. J. Biol. Chem. 272, 8137-40 (1997)) or purified human fibrinogen was covalently bound to 0.93 μm carboxylate-modified latex beads. Individual cells, trapped from a suspension of gel filtered human platelets or CHO cells, were manually attached to 5 μm diameter silica pedestals coated with polylysine. An OPN- or fibrinogen-coated bead, trapped by the laser light, was then brought into proximity of an immobilized cell, oscillated at 50 Hz, and then brought into repeated intermittent contact with the cell by micromanipulation. Data collection was initiated at the first contact between the bead and the cell. Rupture forces following repeated contacts were collected for periods of several seconds to one minute. Individual forces measured during each contact-detachment cycle were collected into 10 pN-wide bins. The number of events in each bin was then plotted against the average force for that bin after normalizing for the total number of interaction cycles. Thus, the percentage of events in a particular force range (bin) represents the probability of rupture events at that tension. Optical artifacts observed with or without trapped latex beads produce signals that appeared as forces below 10 pN. Therefore, rupture forces in this range were not considered when the data were analyzed. The polypeptide was added from a DMSO solution such that the final concentration of DMSO was no greater than 0.5%. All controls also had 0.5% DMSO in the buffer.
Beads coated with fibrinogen were brought into intermittent contact with immobilized platelets in the presence or absence of anti-αIIb and the rupture force was measured. Litvinov R I et al. J. Biol. Chem. 278, 51285-51290 (2003). In the absence of anti-αIIb, the binding probability of platelets and fibrinogen-coated beads decreased exponentially (FIG. 5a) with increasing force, consistent with a non-specific interaction of the beads with the platelet surface. Litvinov R I (2003). […]

αVβ3 = biological target: T2, αVβ3 (Homo sapiens, UniProt P06756); test: Force spectroscopy (laser tweezers), platelets and osteopontin-coated beads; format: cell-based
T2 construct: Platelets express a second integrin with a β3 subunit, αVβ3; endogenous in cells; host or cells: gel-filtered human platelets
From the text: as §1
Platelets express a second integrin with a β3 subunit, αVβ3, which can bind the matrix protein osteopontin when platelets are stimulated by Mn^2+ or ADP. Bennett J S et al. J. Biol. Chem. 272, 8137-8140 (1997). To test the ability of anti-αIIb to discriminate between αIIbβ3 and αVβ3, the rupture force between platelets and osteopontin-coated beads in the presence and absence of anti-αIIb was measured.

T2 sequence (P06756 891-1048 limits assumed): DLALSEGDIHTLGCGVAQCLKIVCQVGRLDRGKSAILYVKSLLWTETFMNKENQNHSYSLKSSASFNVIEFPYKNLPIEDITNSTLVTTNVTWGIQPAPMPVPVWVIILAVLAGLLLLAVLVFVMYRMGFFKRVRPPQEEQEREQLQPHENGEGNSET
T2 sequence (P06756 31-889 partner limits assumed): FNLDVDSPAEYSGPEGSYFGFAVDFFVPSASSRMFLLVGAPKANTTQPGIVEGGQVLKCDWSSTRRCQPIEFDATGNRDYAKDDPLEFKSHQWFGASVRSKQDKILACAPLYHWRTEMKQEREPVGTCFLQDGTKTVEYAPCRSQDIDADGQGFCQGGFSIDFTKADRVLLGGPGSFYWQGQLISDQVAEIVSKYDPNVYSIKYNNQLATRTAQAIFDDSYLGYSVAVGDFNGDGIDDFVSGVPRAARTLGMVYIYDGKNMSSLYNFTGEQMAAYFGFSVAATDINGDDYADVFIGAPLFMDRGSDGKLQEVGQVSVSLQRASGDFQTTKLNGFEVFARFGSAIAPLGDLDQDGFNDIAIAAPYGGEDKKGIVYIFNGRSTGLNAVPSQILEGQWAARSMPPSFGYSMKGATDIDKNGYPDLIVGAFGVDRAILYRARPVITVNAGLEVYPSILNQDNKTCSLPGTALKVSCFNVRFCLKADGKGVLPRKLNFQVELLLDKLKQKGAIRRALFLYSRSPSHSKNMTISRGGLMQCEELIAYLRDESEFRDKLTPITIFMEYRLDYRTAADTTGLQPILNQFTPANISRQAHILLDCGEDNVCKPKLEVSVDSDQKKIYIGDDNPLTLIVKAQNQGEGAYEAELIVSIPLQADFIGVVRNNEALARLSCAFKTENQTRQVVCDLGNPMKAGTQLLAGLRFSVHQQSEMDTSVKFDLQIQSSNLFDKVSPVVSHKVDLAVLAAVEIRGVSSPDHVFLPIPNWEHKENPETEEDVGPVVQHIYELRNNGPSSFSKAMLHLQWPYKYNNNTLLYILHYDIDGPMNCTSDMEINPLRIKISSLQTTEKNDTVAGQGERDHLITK
T2 sequence (P05106 27-788 partner): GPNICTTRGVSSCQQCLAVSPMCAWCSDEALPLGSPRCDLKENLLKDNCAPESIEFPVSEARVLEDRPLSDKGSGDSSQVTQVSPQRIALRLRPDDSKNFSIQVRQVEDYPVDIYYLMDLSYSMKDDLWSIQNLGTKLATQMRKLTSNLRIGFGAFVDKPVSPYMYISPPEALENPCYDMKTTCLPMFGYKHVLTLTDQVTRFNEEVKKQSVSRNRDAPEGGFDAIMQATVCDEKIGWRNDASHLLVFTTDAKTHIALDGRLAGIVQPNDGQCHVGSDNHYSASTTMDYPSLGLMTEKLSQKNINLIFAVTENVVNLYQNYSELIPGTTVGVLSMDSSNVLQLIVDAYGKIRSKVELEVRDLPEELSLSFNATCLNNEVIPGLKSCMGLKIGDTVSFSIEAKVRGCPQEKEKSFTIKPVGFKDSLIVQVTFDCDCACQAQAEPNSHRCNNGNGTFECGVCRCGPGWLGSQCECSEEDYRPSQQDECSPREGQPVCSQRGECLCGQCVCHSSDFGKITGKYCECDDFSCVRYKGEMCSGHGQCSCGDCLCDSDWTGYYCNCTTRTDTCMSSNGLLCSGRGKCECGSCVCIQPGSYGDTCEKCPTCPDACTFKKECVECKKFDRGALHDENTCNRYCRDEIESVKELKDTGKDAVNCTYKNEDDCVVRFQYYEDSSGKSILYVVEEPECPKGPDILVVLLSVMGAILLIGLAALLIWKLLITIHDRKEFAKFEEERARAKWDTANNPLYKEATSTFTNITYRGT
T1 sequence (P08514 891-1039 limits assumed): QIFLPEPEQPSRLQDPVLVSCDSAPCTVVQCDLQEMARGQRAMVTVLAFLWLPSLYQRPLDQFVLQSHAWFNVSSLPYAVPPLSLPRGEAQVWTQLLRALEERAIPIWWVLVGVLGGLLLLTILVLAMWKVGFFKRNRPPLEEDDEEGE
T1 sequence (P08514 32-887 partner limits assumed): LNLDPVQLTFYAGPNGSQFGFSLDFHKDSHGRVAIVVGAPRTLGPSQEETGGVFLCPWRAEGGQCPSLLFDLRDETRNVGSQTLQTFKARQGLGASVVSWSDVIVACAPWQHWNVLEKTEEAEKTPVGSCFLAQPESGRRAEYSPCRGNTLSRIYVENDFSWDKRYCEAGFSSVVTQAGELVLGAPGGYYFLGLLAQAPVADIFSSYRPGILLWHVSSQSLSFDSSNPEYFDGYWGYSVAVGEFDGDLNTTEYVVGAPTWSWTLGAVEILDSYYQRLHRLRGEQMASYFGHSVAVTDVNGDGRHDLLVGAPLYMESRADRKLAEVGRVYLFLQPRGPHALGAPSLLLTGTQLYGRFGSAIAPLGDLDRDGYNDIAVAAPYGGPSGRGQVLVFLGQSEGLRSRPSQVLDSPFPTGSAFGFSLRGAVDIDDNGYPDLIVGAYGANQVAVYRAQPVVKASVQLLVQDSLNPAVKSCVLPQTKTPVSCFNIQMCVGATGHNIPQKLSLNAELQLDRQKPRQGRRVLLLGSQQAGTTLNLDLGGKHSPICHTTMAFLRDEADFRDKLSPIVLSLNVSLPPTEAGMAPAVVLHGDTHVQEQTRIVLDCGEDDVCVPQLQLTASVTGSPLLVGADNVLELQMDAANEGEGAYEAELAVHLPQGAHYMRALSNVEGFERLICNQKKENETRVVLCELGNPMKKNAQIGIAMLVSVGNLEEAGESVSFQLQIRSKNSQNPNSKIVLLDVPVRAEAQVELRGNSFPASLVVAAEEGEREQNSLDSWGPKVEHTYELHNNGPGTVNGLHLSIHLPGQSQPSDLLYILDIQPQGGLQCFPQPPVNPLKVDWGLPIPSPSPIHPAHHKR
T1 sequence (P05106 27-788 partner): as the sequence (P05106 27-788 partner) above

Compound | blue-shift of Trp emission maximum in the presence of phospholipid vesicles ([1]; 1 μM peptide, POPC:POPG 7:3 vesicles) | emission maximum of the Trp residue in the absence of membranes ([1]; 1 μM peptide, excitation 280 nm, 0 μM phospholipids) | insertion into phospholipid vesicles [1] | peak of rupture force between platelets and fibrinogen-coated beads (αIIbβ3; 0.5 μM polypeptide) | rupture force peak after pre-incubation with αIIbβ3 antibody abciximab (αIIbβ3; 0.5 μM polypeptide) | rupture force, platelets and osteopontin-coated beads (αVβ3; 0.5 μM polypeptide) | rupture force / activation, platelets and fibrinogen-coated beads (αIIbβ3) | peak of rupture force between platelets and osteopontin-coated beads (αVβ3) | rupture force peak in the presence of αvβ3 antagonist XJ735 (αVβ3)
CC[C@H](C)[C@H](NC(=O)[C@H](Cc1ccccc1)NC(=O)[C@H](Cc1ccccc1)NC(=O)[C@@H]1CCCN1C(=O)[C@H](CC(C)C)NC(=O)[C@H](CC(C)C)NC(=O)[C@H](CCSC)NC(=O)[C@@H](NC(=O)[C@H](Cc1ccc(O)cc1)NC(=O)[C@H](C)NC(=O)[C@H](CCCCN)NC(=O)[C@@H](N)CCCCN)C(C)C)C(=O)NCC(=O)N[C@@H](CC(C)C)C(=O)N[C@@H](CC(C)C)C(=O)N[C@@H](CC(C)C)C(=O)NCC(=O)N[C@@H](CC(C)C)C(=O)N[C@H](C(=O)N[C@@H](Cc1ccccc1)C(=O)NCC(=O)NCC(=O)N[C@@H](C)C(=O)N[C@@H](Cc1ccccc1)C(=O)N[C@@H](Cc1c[nH]c2ccccc12)C(=O)NCC(=O)N1CCC[C@H]1C(=O)N[C@@H](C)C(=O)N[C@@H](CCCNC(=N)N)C(=O)N[C@@H](Cc1c[nH]cn1)C(=O)N[C@@H](CC(C)C)C(=O)N[C@@H](CCCCN)C(=O)N[C@@H](CCCCN)C(N)=O)[C@@H](C)CC [anti-αIIb] (H-KKAYVMLLPFFIGLLLGLIFGGAFWGPARHLKK-NH2; N-terminus assumed) | 31 nm | 353 nm | successfully insert | ~70 pN | eliminated the rupture force peak | No peak of rupture force was observed | – | – | –
AYVFILLSFILGTLLGFLVMFWA [anti-αV] | – | – | successfully insert | – | – | – | no peak of specific rupture force was observed | 40 pN | not present
